# Results reported in US10766914B2, “DNA alkylating agents” (OBI PHARMA, INC., priority 2015, dated 2020).
# Legend:
# C3A = test: TH2870 sensitivity in liver cancer cells; assay type: cell-based, human; settings: AKR1C3 expression ++++
# Hep G2 = test: TH2870 sensitivity in liver cancer cells; assay type: cell-based, human
# SNU-449 = test: TH2870 sensitivity in liver cancer cells; assay type: cell-based, human; settings: AKR1C3 expression ++++
# SNU-475 = test: TH2870 sensitivity in liver cancer cells; assay type: cell-based, human; settings: AKR1C3 expression ++++
# LIC-0903 = test: TH2870 sensitivity in liver cancer cells; assay type: cell-based, human; settings: AKR1C3 expression ++++
# LIXC-012 = test: TH2870 sensitivity in liver cancer cells; assay type: cell-based, human; settings: AKR1C3 expression ++++
# LIXC-086 = test: TH2870 sensitivity in liver cancer cells; assay type: cell-based, human; settings: AKR1C3 expression ++++
# JHH-7 = test: TH2870 sensitivity in liver cancer cells; assay type: cell-based, human
# PLC/PRF/5 = test: TH2870 sensitivity in liver cancer cells; assay type: cell-based, human; settings: AKR1C3 expression +++
# LIXC-004 = test: TH2870 sensitivity in liver cancer cells; assay type: cell-based, human; settings: AKR1C3 expression +++
# LIXC-006 = test: TH2870 sensitivity in liver cancer cells; assay type: cell-based, human; settings: AKR1C3 expression +++
# SNU-423 = test: TH2870 sensitivity in liver cancer cells; assay type: cell-based, human; settings: AKR1C3 expression +
# Hep 3B2.1-7 = test: TH2870 sensitivity in liver cancer cells; assay type: cell-based, human; settings: AKR1C3 expression /
# SNU-182 = test: TH2870 sensitivity in liver cancer cells; assay type: cell-based, human; settings: AKR1C3 expression /
# PC-3 = test: TH2870 sensitivity in prostate cancer cell lines; assay type: cell-based; settings: Homo sapiens
# MDA-Pca-2b = test: TH2870 sensitivity in prostate cancer cell lines; assay type: cell-based; settings: Homo sapiens
# A549 NSCLC xenograft = test: Example 4-D antitumor efficacy, ectopic A549 NSCLC xenograft model; assay type: in vivo, female nude mice (nu/nu)
# Source text: Specific pathogen-free homozygous female nude mice (nu/nu, Charles River Laboratories) were used. Mice were given food and water ad libitum and housed in microisolator cages. Four to six week old animals were identified by microchips (Locus Technology, Manchester, Md., USA) at the time of the experiments. All animal studies were approved by the Institutional Animal Care and Use Committee at Threshold Pharmaceuticals, Inc.
# All cell lines were from the American Type Culture Collection (ATCC, Rockville, Md., USA).
# Cells were mixed with Matrigel (50% with exception for 30% in the H460) and 0.2 ml per mouse were subcutaneously implanted to the flank area of the animals. When tumor size reached 100-150 250 mm3, mice were randomized into experimental or vehicle groups with 10 mice/group and treatment was started (Day 1). The tested compounds were formulated in 5% DMSO in D5W. The regimens employed in the examples include IP, QD×5/wk (5 days on, 2 days off) as one cycle, for a total of 2 cycles; IP, once; IP, weekly for total 3 weeks; and IV, weekly for 3 weeks. Tumor growth and body weight were measured twice a week. Tumor volume was calculated as (length×width2)/2. Drug efficacy was assessed as Tumor Growth Inhibition (TGI) and Tumor Growth Delay (TGD). TGI was defined as (1−ΔT/ΔC)×100, where ΔT/ΔC presented the ratio of the change in mean (or median, if variation within the group was relatively large) tumor volume of the treated group and of the control group. TGD was calculated as the extra days for the treated tumor to reach 500 mm3 or 1000 mm3 as compared to the control group. Animals were culled when individual tumor size reached over 2000 mm3 or mean tumor volume exceeded 1000 mm3 in the group. Data are expressed as the mean±SEM. One-way analysis of variance with Dunnett post comparison test (GraphPad Prism 4) or two-tailed student's t-test were used for analysis. A P level <0.05 was considered statistically significant.
# The compounds were tested in another A549 model. The compounds were dosed as follows. Daily IP dosing: 5 doses then 2 days off then 5 more doses starting at 100 mm^3 tumors on day 1 (10 animals per group average tumor volume). The antitumor effects and the safety of administration are graphically illustrated below.
# AKR1C3 = target: T1, AKR1C3 (Homo sapiens, UniProt P42330); test: Activation by the aldoketo reductase AKR1C3 (% remaining, LC/MS/MS); assay type: biochemical; settings: for % Remaining: 5 μM, 25 μg/mL AKR1C3, 2 mM NADPH, 37° C.
# T1 sequence (P42330 1-323): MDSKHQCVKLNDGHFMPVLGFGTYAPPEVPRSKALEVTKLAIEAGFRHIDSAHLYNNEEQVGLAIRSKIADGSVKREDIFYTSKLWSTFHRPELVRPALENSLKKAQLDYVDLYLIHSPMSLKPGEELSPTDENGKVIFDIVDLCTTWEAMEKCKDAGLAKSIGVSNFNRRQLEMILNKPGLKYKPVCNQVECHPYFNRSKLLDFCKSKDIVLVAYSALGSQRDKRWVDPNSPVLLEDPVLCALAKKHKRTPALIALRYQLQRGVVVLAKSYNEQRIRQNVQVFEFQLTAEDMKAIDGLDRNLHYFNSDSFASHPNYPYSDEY
# Method: Recombinant human AKR1C3 was diluted to 25 μg/mL in phosphate buffered saline (PBS), pH 7.4 (37° C.), containing 2 mM NADPH. TH2870 or progesterone (positive control) in 30% methanol/70% water was added to the reaction mixture at a final concentration of 5 μM and incubated at 37° C. for 120 minutes. At various times up to 120 min, 50 μL of the reaction mixture was taken and 200 μL acetonitrile containing propranolol as internal standard was added, vortex-mixed and centrifuged for 10 min. The resulting supernatant (5 μL) was injected into a LC/MS/MS for quantitation of % remaining TH2870 and progesterone. The compounds were tested in duplicate.
# [1] = Nu-Foxn1nu NU/NU, mouse, in vivo, ip, 20 mg/kg
# Method: The pharmacokinetics of TH2870 were determined in Mouse/Nu-Foxn 1^nu NU/NU mice with A549 (non small cell lung), A375 (melanoma) and 786-O (renal cell) human tumor xenograft models following a single intraperitoneal dose of 20 mg/kg.
# [2] = Homo sapiens, read-out: RelIC50
smiles,measurement,setting,value
CC(OP(=O)(N1CC1)N1CC1)c1ccc([N+](=O)[O-])c(Oc2cccc(C(=O)N(C)C)c2)c1 (centres unmarked) [Compound 2870],Max Inhibition %,C3A,98.1%
same,IC50,C3A; [2],7.1 nM
same,Max Inhibition %,Hep G2; AKR1C3 expression ++++,98.9%
same,IC50,"Hep G2; Homo sapiens, HepG2, AKR1C3 expression ++++, read-out: RelIC50",5.5 nM
same,Max Inhibition %,SNU-449,99.6%
same,IC50,SNU-449; [2],40 nM
same,Max Inhibition %,SNU-475,100.4%
same,IC50,SNU-475; [2],8 nM
same,Max Inhibition %,LIC-0903,96.3%
same,IC50,LIC-0903; [2],81.9 nM
same,Max Inhibition %,LIXC-012,87.1%
same,Max Inhibition %,LIXC-086,92.8%
same,IC50,LIXC-086; [2],41 nM
same,Max Inhibition %,JHH-7; AKR1C3 expression +++,69.8%
same,IC50,"JHH-7; Homo sapiens, JHH7, AKR1C3 expression +++, read-out: RelIC50",107 nM
same,Max Inhibition %,PLC/PRF/5,53.3%
same,Max Inhibition %,LIXC-004,83.6%
same,IC50,LIXC-004; [2],31.3 nM
same,Max Inhibition %,LIXC-006,71.7%
same,IC50,LIXC-006; [2],116 nM
same,Max Inhibition %,SNU-423,43.3%
same,IC50,SNU-423; [2],> 1000 nM
same,Max Inhibition %,Hep 3B2.1-7,8.1%
same,IC50,Hep 3B2.1-7; [2],> 1000 nM
same,Max Inhibition %,SNU-182,19.4%
same,IC50,SNU-182; [2],> 1000 nM
same,IC50,PC-3,161 nM
same,IC50,MDA-Pca-2b,> 300 nM
same,TGD 500,A549 NSCLC xenograft; 20 mg/kg IP QD × 5/wk × 2 wks,>85 days
same,TGI,A549 NSCLC xenograft; 20 mg/kg IP QD × 5/wk × 2 wks,95.0%
same,TGD 500,A549 NSCLC xenograft; 40 mg/kg IV 2/wk × 2 wks,>85 days
same,TGI,A549 NSCLC xenograft; 40 mg/kg IV 2/wk × 2 wks,98.6%
same,% Remaining,AKR1C3; 0 min,100%
same,% Remaining,AKR1C3; 15 min,0.232%
same,% Remaining,AKR1C3; 30 min,0.0101%
same,% Remaining,AKR1C3; 60 min,0.00%
same,% Remaining,AKR1C3; 90 min,0.00%
same,% Remaining,AKR1C3; 120 min,0.00%
same,disappearance in the presence of AKR1C3,AKR1C3; in words,rapid disappearance
same,activation of TH2870 in liver (TH2660 relative to TH2870),[1],~13 fold
same,activation of TH2870 in tumor (TH2660 relative to TH2870),[1],~148 fold
